Test results taken from the Kinase Knowledgebase extract (Sharma et al. 2016).

Biological target: EGFR (human) (UniProt P00533)
Sequence (P00533 whole entry, looked up): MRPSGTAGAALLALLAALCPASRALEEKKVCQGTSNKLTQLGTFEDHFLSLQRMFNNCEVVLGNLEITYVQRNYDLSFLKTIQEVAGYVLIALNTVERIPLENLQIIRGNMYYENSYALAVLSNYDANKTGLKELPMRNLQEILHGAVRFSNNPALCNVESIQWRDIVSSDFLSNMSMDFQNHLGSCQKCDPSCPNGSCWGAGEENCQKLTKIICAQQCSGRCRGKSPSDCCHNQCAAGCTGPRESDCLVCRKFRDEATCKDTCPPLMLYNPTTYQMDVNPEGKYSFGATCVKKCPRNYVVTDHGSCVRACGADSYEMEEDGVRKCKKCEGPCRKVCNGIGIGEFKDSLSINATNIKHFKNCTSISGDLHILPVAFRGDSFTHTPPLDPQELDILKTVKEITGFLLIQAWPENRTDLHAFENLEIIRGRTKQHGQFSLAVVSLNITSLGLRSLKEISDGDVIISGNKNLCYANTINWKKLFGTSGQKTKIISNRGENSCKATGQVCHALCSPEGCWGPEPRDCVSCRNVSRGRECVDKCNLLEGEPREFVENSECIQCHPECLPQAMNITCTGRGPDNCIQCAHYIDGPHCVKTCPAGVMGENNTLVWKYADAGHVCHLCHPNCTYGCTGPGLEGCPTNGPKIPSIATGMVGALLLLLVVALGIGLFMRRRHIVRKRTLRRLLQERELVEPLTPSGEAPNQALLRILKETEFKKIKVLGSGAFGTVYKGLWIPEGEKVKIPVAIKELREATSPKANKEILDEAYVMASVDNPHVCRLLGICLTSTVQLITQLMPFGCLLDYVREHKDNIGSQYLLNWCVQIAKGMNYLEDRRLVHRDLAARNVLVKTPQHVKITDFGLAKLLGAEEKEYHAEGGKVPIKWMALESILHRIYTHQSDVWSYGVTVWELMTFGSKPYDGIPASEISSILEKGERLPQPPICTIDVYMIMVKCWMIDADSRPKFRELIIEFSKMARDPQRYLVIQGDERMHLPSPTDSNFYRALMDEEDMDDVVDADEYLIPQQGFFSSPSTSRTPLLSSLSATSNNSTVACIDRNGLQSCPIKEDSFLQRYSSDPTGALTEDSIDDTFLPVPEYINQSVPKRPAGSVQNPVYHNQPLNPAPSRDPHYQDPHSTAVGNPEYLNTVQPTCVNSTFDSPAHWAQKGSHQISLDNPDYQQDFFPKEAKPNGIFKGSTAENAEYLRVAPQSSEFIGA

Compound	IC50 [nM]
c1cn(CCCc2ccc(-c3cc4nccc(Nc5ccc6[nH]ccc6c5)c4s3)cc2)cn1	5
CC(=O)NCCNCc1ccc(-c2cc3nccc(Nc4ccc5[nH]ccc5c4)c3s2)cc1	5
c1cn(CCCc2ccc(-c3cc4ncnc(Nc5ccc6[nH]ccc6c5)c4s3)cc2)cn1	1
c1ccc(-c2cc3nccc(Nc4ccc5[nH]ccc5c4)c3s2)cc1	68
c1nc(Nc2ccc3[nH]ccc3c2)c2sc(-c3ccc(NCCN4CCCC4)cc3)cc2n1	1
c1csc(-c2cc3nccc(Nc4ccc5[nH]ccc5c4)c3s2)c1	39
CC(=O)NCCNCc1ccc(-c2cc3ncnc(Nc4ccc5[nH]ccc5c4)c3s2)cc1	2
NC(=O)C1CCN(Cc2ccc(-c3cc4nccc(Nc5ccc6[nH]ccc6c5)c4s3)cc2)CC1	7
NC(=O)C1CCN(Cc2ccc(-c3cc4ncnc(Nc5ccc6[nH]ccc6c5)c4s3)cc2)CC1	1
CC(C)(CO)NCc1ccc(-c2cc3nccc(Nc4ccc5[nH]ccc5c4)c3s2)cc1	8
